Structures can show the parent of a compound that is named as a salt.
Tests used:
human A549 cells = experiment: Inhibition test of PGE2 production using human A549 cells; assay type: cell-based; conditions: IL-1β stimulated A549 cells, 24 h, PGE2 by HTRF, read-out: A549 cell inhibition of PGE2 production IC50
Summary of the method: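 PGE2 (HTRF) and PGF2a (EIA) were quantified in medium after 24 h, 37°C IL-1β stimulation (5 ng/well) of human A549 cells that had received test compound 60 min beforehand (0.1% DMSO, 3% FBS RPMI). IC50 relative to the window between IL-1β-stimulated and unstimulated controls.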

human mPGES-1 = human mPGES-1 (Homo sapiens (Human), UniProt O14684); experiment: mPGES-1 inhibitory activity test; assay type: biochemical; conditions: for IC50: microsomes of CHO-K1 cells expressing human mPGES-1, PGH2 1 μM, PGE2 by HTRF, read-out: mPGES-1 inhibition (IC50 nM); for inhibition at 0.01 µM: 10 nM test compound; for inhibition at 0.1 µM: 100 nM test compound
Summary of the method: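 PGE2 formation was quantified by HTRF and reported as percent inhibition at 10 and 100 nM compound or as IC50. The 60-second reaction at 4° C used 1 μM PGH2, after a 20-minute 4° C preincubation of compound (1% DMSO final) with glutathione-supplemented (2.5 mM, pH 7.4) microsomes. The microsomes were from transiently transfected CHO-K1 cells expressing human mPGES-1.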

Chain of human mPGES-1 (O14684 whole entry): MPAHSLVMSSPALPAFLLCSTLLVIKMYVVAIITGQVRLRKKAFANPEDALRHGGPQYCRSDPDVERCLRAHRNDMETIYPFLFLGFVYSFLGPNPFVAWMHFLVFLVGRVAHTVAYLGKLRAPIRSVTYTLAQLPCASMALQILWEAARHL

Compound | IC50 (human A549 cells) | IC50 (human mPGES-1) | inhibition at 0.01 µM (human mPGES-1) | inhibition at 0.1 µM (human mPGES-1)
O=C(CC1CCCC1)NCc1ccc(Cl)c(C(=O)Nc2cccc3c2cnn3-c2ccc(C(F)(F)F)cc2)c1 [Example 46, 2-Chloro-5-{[(cyclopentylacetyl)amino]methyl}-N-{1-[4-(trifluoromethyl)phenyl]-1H-indazol-4-yl}benzamide] | 14.3 nM | 3 nM | – | –
CC(C)n1ncc2c(NC(=O)c3cc(CNC(=O)C(C)(C)C)ccc3C(F)(F)F)cccc21 [Example 202, 5-{[(2,2-Dimethylpropanoyl)amino]methyl}-N-[1-(propan-2-yl)-1H-indazol-4-yl]-2-(trifluoromethyl)benzamide] | 20.2 nM | – | 59% | 79%
O=C(Nc1cccc2c1cnn2-c1ccc(C(F)(F)F)cc1)c1cc(CNC(=O)C2(O)CC2)ccc1Cl [Example 27] | 4.4 nM | 10 nM | – | –
O=C(Nc1cccc2c1cnn2-c1cccc(C(F)(F)F)c1)c1cc(CNC(=O)C2CCCC2)ccc1Cl [Example 219, 2-Chloro-5-{[(cyclopentylcarbonyl)amino]methyl}-N-{1-[3-(trifluoromethyl)phenyl]-1H-indazol-4-yl}benzamide] | 1 nM | – | 74% | 93%
CC(C)(C)C(=O)NCc1ccc(Cl)c(C(=O)Nc2cccc3c2cnn3-c2ccc(CO)nc2)c1 [Example 75, 2-Chloro-5-{[(2,2-dimethylpropanoyl)amino]methyl}-N-{1-[6-(hydroxymethyl)pyridin-3-yl]-1H-indazol-4-yl}benzamide] | 260 nM | 71.1 nM | – | –
O=C(Nc1cccc2c1cnn2-c1ccc(C(F)(F)F)cc1)c1cc(CNC(=O)C2CCCCC2)ccc1Cl [Example 31, 2-Chloro-5-{[(cyclohexylcarbonyl)amino]methyl}-N-{1-[4-(trifluoromethyl)phenyl]-1H-indazol-4-yl}benzamide] | 5.5 nM | 1.6 nM | – | –
CC(C)(C)C(=O)NCc1ccc(Cl)c(C(=O)Nc2cccc3c2cnn3-c2ccc(F)cc2)c1Cl [Example 158, 2,6-Dichloro-3-{[(2,2-dimethylpropanoyl)amino]methyl}-N-[1-(4-fluorophenyl)-1H-indazol-4-yl]benzamide] | 1.6 nM | – | 49% | 100%
O=C(Nc1cccc2c1cnn2-c1ccncc1)c1cc(CNC(=O)C2CC2)ccc1Cl [Example 5, 2-Chloro-5-{[(cyclopropylcarbonyl)amino]methyl}-N-[1-(pyridin-4-yl)-1H-indazol-4-yl]benzamide hydrochloride] | 688 nM | 9.6 nM | – | –
O=C(Nc1cccc2c1cnn2-c1ccc(Cl)cc1)c1cc(CNS(=O)(=O)C2CC2)ccc1Cl [Example 150, 2-Chloro-N-[1-(4-chlorophenyl)-1H-indazol-4-yl]-5-([(cyclopropylsulfonyl)amino]methyl)benzamide] | 5.9 nM | – | 72% | –
CN(C)CC(=O)NCc1ccc(Cl)c(C(=O)Nc2cccc3c2cnn3-c2ccc(C(F)(F)F)cc2)c1 [Example 24, 2-Chloro-5-{[(N,N-dimethylglycyl)amino]methyl}-N-{1-[4-(trifluoromethyl)phenyl]-1H-indazol-4-yl}benzamide hydrochloride] | 46.4 nM | 57.1 nM | – | –
CC(C)(CO)C(=O)NCc1ccc(Cl)c(C(=O)Nc2cccc3c2cnn3-c2cncc(C(F)(F)F)c2)c1 [Example 171, 2-Chloro-5-{[(3-hydroxy-2,2-dimethylpropanoyl)amino]methyl}-N-{1-[5-(trifluoromethyl)pyridin-3-yl]-1H-indazol-4-yl}benzamide] | 9.6 nM | – | – | 100%
CC(C)(CO)C(=O)NCc1ccc(Cl)c(C(=O)Nc2cccc3c2cnn3-c2cccc(C(F)(F)F)c2)c1 [Example 223, 2-Chloro-5-{[(3-hydroxy-2,2-dimethylpropanoyl)amino]methyl}-N-{1-[3-(trifluoromethyl)phenyl]-1H-indazol-4-yl}benzamide] | 0.6 nM | – | 78% | –
O=C(Nc1cccc2c1cnn2-c1cscn1)c1cc(CNC(=O)C2(C(F)(F)F)CC2)ccc1Cl [Example 189, 2-Chloro-N-[1-(1,3-thiazol-4-yl)-1H-indazol-4-yl]-5-[({[1-(trifluoromethyl)cyclopropyl]carbonyl}amino)methyl]benzamide] | 23.6 nM | – | 80% | –
Cc1ccc(-n2ncc3c(NC(=O)c4cc(CNC(=O)C(F)(F)F)ccc4Cl)cccc32)cn1 [Example 87, 2-Chloro-N-[1-(6-methylpyridin-3-yl)-1H-indazol-4-yl]-5-{[(trifluoroacetyl)amino]methyl}benzamide hydrochloride] | 72 nM | 4.7 nM | – | –
CC(C)(C)C(=O)NCc1ccc(Cl)c(C(=O)Nc2cccc3c2cnn3C2CCOCC2)c1 [Example 104, 2-Chloro-5-{[(2,2-dimethylpropanoyl)amino]methyl}-N-[1-(tetrahydro-2H-pyran-4-yl)-1H-indazol-4-yl]benzamide] | 80.6 nM | 99.9 nM | – | –
CCC(=O)NCc1ccc(Cl)c(C(=O)Nc2cccc3c2cnn3-c2ccc(C(F)(F)F)cc2)c1 [Example 19, 2-Chloro-5-[(propanoylamino)methyl]-N-{1-[4-(trifluoromethyl)phenyl]-1H-indazol-4-yl}benzamide] | 1 nM | 6.1 nM | – | –
CC(C)(C)CC(=O)NCc1ccc(Cl)c(C(=O)Nc2cccc3c2cnn3-c2ccc(C(F)(F)F)nc2)c1 [Example 173, 2-Chloro-5-{[(3,3-dimethylbutanoyl)amino]methyl}-N-{1-[6-(trifluoromethyl)pyridin-3-yl]-1H-indazol-4-yl}benzamide] | 6.7 nM | – | 54% | 86%
COCC(=O)NCc1ccc(Cl)c(C(=O)Nc2cccc3c2cnn3-c2ccc(OC)c(C(F)(F)F)c2)c1 [Example 265, 2-Chloro-5-{[(methoxyacetyl)amino]methyl}-N-{1-[4-methoxy-3-(trifluoromethyl)phenyl]-1H-indazol-4-yl}benzamide] | 2.7 nM | – | 95% | 100%
CC(C)(C)C(=O)NCc1ccc(Cl)c(C(=O)Nc2cccc3c2cnn3-c2cccc(OC(F)F)c2)c1 [Example 81, 2-Chloro-N-{1-[3-(difluoromethoxy)phenyl]-1H-indazol-4-yl}-5-{[(2,2-dimethylpropanoyl)amino]methyl}benzamide] | 0.3 nM | 14.9 nM | – | –
CN(C)CCC(=O)NCc1ccc(Cl)c(C(=O)Nc2cccc3c2cnn3-c2ccc(C(F)(F)F)cc2)c1 [Example 35, 2-Chloro-5-{[(N,N-dimethyl-p-alanyl)amino]methyl}-N-{1-[4-(trifluoromethyl)phenyl]-1H-indazol-4-yl}benzamide hydrochloride] | 933 nM | 116 nM | – | –
O=C(CC1CC1)NCc1ccc(Cl)c(C(=O)Nc2cccc3c2cnn3-c2ccc(C(F)(F)F)cc2)c1 [Example 38, 2-Chloro-5-{[(cyclopropylacetyl)amino]methyl}-N-{1-[4-(trifluoromethyl)phenyl]-1H-indazol-4-yl}benzamide] | 7.5 nM | 5.7 nM | – | –
O=C(Nc1cccc2c1cnn2-c1cncc(C(F)(F)F)c1)c1cc(CNC(=O)C2(C(F)(F)F)CC2)ccc1Cl [Example 168, 2-Chloro-5-[({[1-(trifluoromethyl)cyclopropyl]carbonyl}amino)methyl]-N-{1-[5-(trifluoromethyl)pyridin-3-yl]-1H-indazol-4-yl}benzamide] | 1.2 nM | – | 53% | 92%
O=C(Nc1cccc2c1cnn2-c1cccc(OC(F)F)c1)c1cc(CNC(=O)C2(O)CC2)ccc1Cl [Example 141, 2-Chloro-N-{1-[3-(difluoromethoxy)phenyl]-1H-indazol-4-yl}-5-({[(1-hydroxycyclopropyl)carbonyl]amino}methyl)benzamide] | 59.4 nM | – | 54% | 100%
O=C(Nc1cccc2c1cnn2-c1cccc(OC(F)(F)F)c1)c1cc(CNS(=O)(=O)C2CC2)ccc1Cl [Example 126, 2-Chloro-5-{[(cyclopropylsulfonyl)amino]methyl}-N-{1-[3-(trifluoromethoxy)phenyl]-1H-indazol-4-yl}benzamide] | 9.8 nM | – | 100% | –
COCCC(=O)NCc1ccc(Cl)c(C(=O)Nc2cccc3c2cnn3-c2ccc(C(F)(F)F)cc2)c1 [Example 47, 2-Chloro-5-{[(3-methoxypropanoyl)amino]methyl}-N-{1-[4-(trifluoromethyl)phenyl]-1H-indazol-4-yl}benzamide] | 8.5 nM | 8 nM | – | –
CC(C)(C)OC(=O)N1CCC(C(=O)NCc2ccc(Cl)c(C(=O)Nc3cccc4c3cnn4-c3ccc(C(F)(F)F)cc3)c2)CC1 [Example 36, tert-Butyl 4-{[4-chloro-3-({1-[4-(trifluoromethyl)phenyl]-1H-indazol-4-yl}carbamoyl)benzyl]carbamoyl}piperidine-1-carboxylate] | 1.7 nM | 1.4 nM | – | –
O=C(Nc1cccc2c1cnn2-c1ccc(Cl)cc1)c1cc(CNC(=O)C2(C(F)(F)F)CC2)ccc1Cl [Example 147, 2-Chloro-N-[1-(4-chlorophenyl)-1H-indazol-4-yl]-5-[({[1-(trifluoromethyl)cyclopropyl]carbonyl}amino)methyl]benzamide] | 0.9 nM | – | 85% | –
